According to the Kinase Knowledgebase extract (Sharma et al. 2016):

Assays:
[1] = biological target: EGFR (human) (UniProt P00533); conditions: a431
[2] = biological target: EGFR (human) (UniProt P00533); conditions: a549
[3] = biological target: EGFR (human) (UniProt P00533)
[4] = biological target: EGFR (human) (UniProt P00533); conditions: snu638

Chain of EGFR (human) (P00533 whole entry, looked up): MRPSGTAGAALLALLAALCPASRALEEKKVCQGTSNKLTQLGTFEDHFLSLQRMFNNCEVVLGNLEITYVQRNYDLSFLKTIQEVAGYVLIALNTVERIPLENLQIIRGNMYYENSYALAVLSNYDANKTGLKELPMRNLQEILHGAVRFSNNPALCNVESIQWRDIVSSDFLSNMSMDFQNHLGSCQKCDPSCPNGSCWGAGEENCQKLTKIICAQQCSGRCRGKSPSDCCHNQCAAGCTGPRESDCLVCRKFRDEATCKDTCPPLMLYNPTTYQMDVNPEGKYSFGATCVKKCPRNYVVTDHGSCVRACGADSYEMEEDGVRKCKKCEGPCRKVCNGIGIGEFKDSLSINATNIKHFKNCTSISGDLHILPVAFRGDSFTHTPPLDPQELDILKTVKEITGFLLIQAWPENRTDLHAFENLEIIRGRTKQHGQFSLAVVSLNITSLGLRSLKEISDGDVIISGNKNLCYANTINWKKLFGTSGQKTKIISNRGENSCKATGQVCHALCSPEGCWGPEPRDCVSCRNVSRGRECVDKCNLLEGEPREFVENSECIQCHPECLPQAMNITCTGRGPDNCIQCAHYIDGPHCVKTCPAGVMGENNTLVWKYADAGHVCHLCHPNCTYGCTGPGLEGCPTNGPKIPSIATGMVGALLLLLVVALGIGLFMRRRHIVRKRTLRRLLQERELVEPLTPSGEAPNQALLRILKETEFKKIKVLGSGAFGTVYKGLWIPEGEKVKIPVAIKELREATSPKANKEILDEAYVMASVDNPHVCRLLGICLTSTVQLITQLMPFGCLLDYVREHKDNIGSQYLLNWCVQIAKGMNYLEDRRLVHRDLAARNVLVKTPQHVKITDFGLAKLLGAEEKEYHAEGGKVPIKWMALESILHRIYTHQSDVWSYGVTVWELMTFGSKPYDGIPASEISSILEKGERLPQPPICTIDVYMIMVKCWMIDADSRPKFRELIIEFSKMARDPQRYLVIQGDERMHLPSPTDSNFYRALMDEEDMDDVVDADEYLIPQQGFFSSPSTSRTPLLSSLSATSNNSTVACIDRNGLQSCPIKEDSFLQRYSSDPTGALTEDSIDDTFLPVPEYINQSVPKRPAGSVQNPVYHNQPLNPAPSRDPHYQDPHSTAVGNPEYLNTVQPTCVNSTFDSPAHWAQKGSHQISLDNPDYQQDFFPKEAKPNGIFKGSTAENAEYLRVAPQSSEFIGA

Fc1ccc(Nc2ncnc3cc4c(cc23)OCCO4)cc1
GI50 [1]: 1290 nM
GI50 [2]: 40700 nM
IC50 [3]: 77.6 nM
GI50 [4]: 49000 nM

Brc1cccc(Nc2ncnc3cc4c(cc23)OCCO4)c1
GI50 [1]: 200 nM
GI50 [2]: 4370 nM
IC50 [3]: 17.8 nM
GI50 [4]: 5750 nM

Fc1cc(Nc2ncnc3cc4c(cc23)OCCO4)ccc1Cl
GI50 [1]: 490 nM
GI50 [2]: 75900 nM
GI50 [4]: > 100000 nM

FC(F)(F)c1cccc(Nc2ncnc3cc4c(cc23)OCCO4)c1
GI50 [1]: 140 nM
GI50 [2]: 2240 nM
GI50 [4]: 2750 nM

Clc1cccc(Nc2ncnc3cc4c(cc23)OCCO4)c1
GI50 [1]: 190 nM
GI50 [2]: 4270 nM
IC50 [3]: 8.3 nM
GI50 [4]: 4680 nM

Cc1cc(C)cc(Nc2ncnc3cc4c(cc23)OCCO4)c1
GI50 [1]: 120 nM
GI50 [2]: 230 nM
GI50 [4]: 170 nM

c1ccc(Nc2ncnc3cc4c(cc23)OCCO4)cc1
GI50 [1]: 3800 nM
GI50 [2]: 45700 nM
GI50 [4]: 55000 nM

Ic1cccc(Nc2ncnc3cc4c(cc23)OCCO4)c1
GI50 [1]: 1550 nM
GI50 [2]: 5620 nM
IC50 [3]: 63 nM
GI50 [4]: 6170 nM
